For 44 compounds, mortality results are on record in patent publication US20070066627A1, “Hydrazone derivatives for combatting harmful insects and arachnids” (priority 2004, published 2007).

Bounds are passed on as bounds.

Holding throughout (assay type): in vivo
Experiment [1] has as its system Southern Armyworm (Spodoptera eridania), 2nd Instar Larvae. The experiment is described as follows: Southern armyworm leaf-dip test, 2nd instar larvae. The note with it: foliar, 120 h, observation at 5 days, read-out: mortality in comparison with untreated controls. Here is the method: 2.1 Southern Armyworm (Spodoptera eridania), 2nd Instar Larvae
The active compounds were formulated for testing the activity against insects and arachnids as a 10.000 ppm solution in a mixture of 35% acetone and water, which was diluted with water, if needed.
A Sieva lima bean leaf expanded to 78 cm in length is dipped in the test solution with agitation for 3 seconds and allowed to dry in a hood. The leaf is then placed in a 100×10 mm petri dish containing a damp filter paper on the bottom and ten 2nd instar caterpillars. At 5 days, observations are made of mortality, reduced feeding, or any interference with normal molting.

Experiment [2] concerns 2-Spotted Spider Mite (tetranychus urticae, OP-Resistant Strain). The experiment is described as follows: 2-spotted spider mite test on Sieva lima bean plants. To be noted: 120 h, plants dipped, after 5 days, read-out: mortality compared to untreated controls. How it is done:
2.6 2-Spotted Spider Mite (tetranychus urticae, OP-Resistant Strain)
Sieva lima bean plants with primary leaves expanded to 7-12 cm were infested by placing on each a small piece from an infested leaf (with about 100 mites) taken from the main colony. This was done at about 2 hours before treatment to allow the mites to move over to the test plant to lay eggs. The piece of leaf used to transfer the mites was removed. The newly-infested plants were dipped in the test solution and allowed to dry. The test plants were kept under fluorescent light (24 hour photoperiod) at about 25° C. and 20-40% relative humidity. After 5 days, one leaf was removed and mortality counts were made.

A further experiment has as its system Bean Aphid (aphis fabae). The experiment can be described thus: Bean aphid test on nasturtium plants. The note with it: 72 h, plant dipped, after 3 days, read-out: mortality in comparison with untreated controls. The text has this: 2.4 Bean Aphid (aphis fabae)
(§1) The active compounds were formulated in 50:50 acetone:water and 100 ppm Kinetic® surfactant.
Nasturtium plants grown in Metro mix in the 1st leaf-pair stage (variety ‘Mixed Jewle’) were infested with approximately 2-30 laboratory-reared aphids by placing infested cut plants on top of the test plants. The cut plants were removed after 24 hr. Each plant was dipped into the test solution to provide complete coverage of the foliage, stem, protruding seed surface and surrounding cube surface and allowed to dry in the fume hood. The treated plants were kept at about 25° C. with continuous fluorescent light. Aphid mortality was determined after 3 days.

The subject of experiment [3] is Cotton Aphid (aphis gossypii). The experiment is described as follows: Cotton aphid test on cotton cotyledons. To be noted: 120 h, cotyledons dipped, after 5 days, read-out: mortality in comparison with untreated controls.
Source text: 2.2 Cotton Aphid (aphis gossypii)
as §1
Cotton plants at the cotyledon stage (one plant per pot) were infested by placing a heavily infested leaf from the main colony on top of each cotyledon. The aphids were allowed to transfer to the host plant overnight, and the leaf used to transfer the aphids was removed. The cotyledons were dipped in the test solution and allowed to dry. After 5 days, mortality counts were made.

The test system of experiment [4] is Silverleaf Whitefly (bemisia argentifolii). The experiment is described as follows: Silverleaf whitefly test on cotton plants. The note with it: 72 h, cotyledons dipped, adults, 3 days after treatment, read-out: mortality compared to untreated controls. Here is the method: 2.5 Silverleaf Whitefly (bemisia argentifolii)
as §1
Selected cotton plants were grown to the cotyledon state (one plant per pot). The cotyledons were dipped into the test solution to provide complete coverage of the foliage and placed in a well-vented area to dry. Each pot with treated seedling was placed in a plastic cup and 10 to 12 whitefly adults (approximately 3-5 day old) were introduced. The insects were collected using an aspirator and an 0.6 cm, non-toxic Tygon® tubing (R-3603) connected to a barrier pipette tip. The tip, containing the collected insects, was then gently inserted into the soil containing the treated plant, allowing insects to crawl out of the tip to reach the foliage for feeding. The cups were covered with a reusable screened lid (150 micron mesh polyester screen PeCap from Tetko Inc). Test plants were maintained in the holding room at about 25° C. and 20-40% relative humidity for 3 days avoiding direct exposure to the fluorescent light (24 hour photoperiod) to prevent trapping of heat inside the cup. Mortality was assessed 3 days after treatment of the plants.

Experiment [5] concerns Orchid Thrips (dichromothrips corbetti). The experiment can be described thus: Orchid thrips floral-immersion test. The note with it: 96 h, adults, after 4 days, read-out: mortality compared to untreated controls. Here is the method:
2.7 Orchid Thrips (dichromothrips corbetti)
Dichromothrips corbetti adults used for bioassay were obtained from a colony maintained continuously under laboratory conditions. For testing purposes, the test compound was diluted to a concentration of 500 ppm (wt compound:vol diluent) in a 1:1 mixture of acetone:water, plus 0.01% Kinetic® surfactant.
Thrips potency of each compound was evaluated by using a floral-immersion technique. Plastic petri dishes were used as test arenas. All petals of individual, intact orchid flowers were dipped into treatment solution for approximately 3 seconds and allowed to dry for 2 hours. Treated flowers were placed into individual petri dishes along with 10-15 adult thrips. The petri dishes were then covered with lids. All test arenas were held under continuous light and a temperature of about 28° C. for duration of the assay. After 4 days, the numbers of live thrips were counted on each flower, and along inner walls of each petri dish. The level of thrips mortality was extrapolated from pretreatment thrips numbers.

In experiment [6] the test system is Green Peach Aphid (Myzus persicae). The experiment is described as follows: Green peach aphid test on pepper plants. The note with it: 120 h, leaves dipped, after 5 days, read-out: mortality in comparison with untreated controls.
Source text: 2.3 Green Peach Aphid (Myzus persicae)
as §1
Pepper plants in the 2nd leaf-pair stage (variety ‘California Wonder’) were infested with approximately 40 laboratory-reared aphids by placing infested leaf sections on top of the test plants. The leaf sections were removed after 24 hr. The leaves of the intact plants were dipped into gradient solutions of the test compound and allowed to dry.
Test plants were maintained under fluorescent light (24 hour photoperiod) at about 25° C. and 20-40% relative humidity. Aphid mortality on the treated plants, relative to mortality on check plants, was determined after 5 days.

In the case of `COc1ccc(C(=O)NN=CC(C)=Cc2ccccc2)cc1OC` [Compound 185], in experiment [1], the mortality (commonly the share of the test organisms that died) at 300 ppm was over 80%.
Still for that read-out and setting: then `CC(C=NNC(=O)c1ccc(F)cc1)=Cc1ccccc1` [Compound 190], with over 80%.
Consider `CC(C=NNC(=O)c1ccc(C)s1)=Cc1ccc(OC(F)F)cc1` [Compound 91], for which the mortality at 300 ppm in experiment [2] was over 75%.
As for `O=C(NN=CC(Br)=Cc1ccccc1)c1ccccc1F` [Compound 192], in experiment [1], the mortality at 300 ppm is over 80%.
Take `CC(C=NNC(=O)c1cnccc1C(F)(F)F)=Cc1ccc(F)cc1` [Compound 169]: the mortality at 300 ppm in the experiment with Bean Aphid (aphis fabae) is over 75%.
With `O=C(NN=CC(Cl)=Cc1ccccc1)c1ccc(Cl)s1` [Compound 97], the mortality at 300 ppm in experiment [1] is over 80%.
In the case of `CC(C=NNC(=O)c1ccc2ccccc2c1)=Cc1cccc(F)c1` [Compound 210], in the experiment on Bean Aphid (aphis fabae), the mortality at 300 ppm is over 75%.
Regarding `CC(C=NNC(=O)c1ccccn1)=Cc1ccccc1` [Compound 156], the mortality at 300 ppm in experiment [3] is over 75%; in experiment [4], over 80%.
`CC(C=NNC(=O)c1ccc(F)cc1F)=Cc1ccccc1` [Compound 318]: the mortality at 300 ppm in experiment [1] was over 80%.
With `CC(C=NNC(=O)c1ccncc1)=Cc1ccccc1` [Compound 171], the mortality at 300 ppm in the experiment with Bean Aphid (aphis fabae) is over 75%.
With `CC(C=NNC(=O)Cc1ccccc1)=Cc1ccccc1` [Compound 18], the mortality at 300 ppm in experiment [1] is over 80%; in the experiment with Bean Aphid (aphis fabae) it was over 75%.
`CC(C=NNC(=O)c1[nH]cnc1C)=Cc1cccc(F)c1` [Compound 144]: the mortality at 500 ppm in experiment [5] is over 95%.
With `CC(C=NNC(=O)c1cccnc1)=Cc1ccccc1` [Compound 160], the mortality at 300 ppm in experiment [1] is over 80%.
Regarding `O=C(NN=CC(Cl)=Cc1ccccc1)c1ccncc1` [Compound 170], in the experiment on Bean Aphid (aphis fabae), the mortality at 300 ppm was over 75%.
As for `O=C(NN=CC(Cl)=Cc1ccccc1)c1cccnc1` [Compound 162], the mortality at 300 ppm in experiment [1] is over 80%.
Take `O=C(NN=CC=Cc1ccccc1)c1ccc(Cl)s1` [Compound 96]: the mortality at 300 ppm in experiment [2] is over 75%.
`CC(C=NNC(=O)c1cnccc1C(F)(F)F)=Cc1ccccc1` [Compound 168]: the mortality at 300 ppm in the experiment with Bean Aphid (aphis fabae) is over 75%.
As to `CC(C=NNC(=O)c1ccc(O)cc1)=Cc1ccc(F)cc1` [Compound 184], the mortality at 300 ppm with Bean Aphid (aphis fabae) was over 75%.
Turning to `CC(C=NNC(=O)c1cccnc1)=Cc1cccc(C(F)(F)F)c1` [Compound 161], the mortality at 300 ppm in experiment [1] is over 80%.
Turning to `CCC(C=NNC(=O)c1ccco1)=Cc1ccccc1` [Compound 126], the mortality at 300 ppm (in experiment [3]; in the experiment on Bean Aphid (aphis fabae)) was over 75% in each case.
Take `CC(C=NNC(=O)c1ccccc1F)=Cc1cccc(F)c1` [Compound 198]: the mortality at 300 ppm was over 80% in experiment [1] and over 75% in experiment [6].
Consider `CC(C=NNC(=O)c1ccccn1)=Cc1cccc(F)c1` [Compound 159], for which the mortality at 300 ppm (in experiment [3]; in the experiment with Bean Aphid (aphis fabae)) was over 75% throughout.
Regarding `O=C(NN=CC(Cl)=Cc1ccccc1)c1cccs1` [Compound 69], the mortality at 300 ppm in the experiment with Bean Aphid (aphis fabae) was over 75%.
`CC(C=NNC(=O)c1cnccn1)=Cc1ccccc1` [Compound 177]: the mortality at 300 ppm in experiment [1] is over 80%.
On to `CC(C=NNC(=O)c1ccccn1)=Cc1ccc(F)cc1` [Compound 158], for which the mortality at 300 ppm in experiment [4] was over 80%.
The same measure, in the same setting: the figure for `CCC(C=NNC(=O)c1ccc(F)cc1)=Cc1ccccc1` [Compound 189] is over 80%; for `CC(C=NNC(=O)c1cccs1)=Cc1ccccc1` [Compound 50] it is over 80%.
In the case of `CC(C=NNC(=O)Cc1cccc2ccccc12)=Cc1cccc(F)c1` [Compound 21], in experiment [2], the mortality at 300 ppm is over 75%.
`CC(C=NNC(=O)c1cc(C(C)C)no1)=Cc1ccccc1` [Compound 238]: the mortality at 300 ppm in experiment [1] was over 80%.
On to `CCC(C=NNC(=O)c1ccccc1F)=Cc1ccccc1` [Compound 193], for which the mortality at 300 ppm in experiment [4] is over 80%.
As to `CC(C=NNC(=O)c1cccs1)=Cc1ccc(F)cc1` [Compound 71], the mortality at 300 ppm (in experiment [3]; in the experiment on Bean Aphid (aphis fabae)) was over 75% each time.
With `CC(C=NNC(=O)c1ccccc1F)=Cc1ccc(F)cc1` [Compound 199], the mortality at 300 ppm in the experiment with Bean Aphid (aphis fabae) is over 75%.
Turning to `CC(C=NNC(=O)c1[nH]cnc1C)=Cc1ccc(Cl)cc1Cl` [Compound 138], the mortality at 300 ppm in experiment [2] was over 75%.
Turning to `CC(C=NNC(=O)c1cc(Cl)ccn1)=Cc1ccccc1F` [Compound 278], the mortality at 300 ppm in experiment [6] is over 75%.
On to `CC(C=NNC(=O)c1ccccn1)=Cc1cccc(C)c1` [Compound 253], for which, in the experiment on Bean Aphid (aphis fabae), the mortality at 300 ppm was over 75%.
On the same count and under the same terms, then `O=C(NN=CC=Cc1ccccc1)c1ccccc1F` [Compound 196], with over 75%.
Take `CC(C=NNC(=O)c1ccccc1F)=Cc1ccccc1` [Compound 194]: the mortality at 300 ppm in experiment [3] and in experiment [6] was over 75% throughout.
Consider `O=C(NN=CC=Cc1ccccc1F)c1ccccc1F` [Compound 197], for which the mortality at 300 ppm in experiment [6] was over 75%.
As for `CC(C=NNC(=O)c1ccc(F)cc1)=Cc1ccc(F)cc1` [Compound 191], in the experiment with Bean Aphid (aphis fabae), the mortality at 300 ppm is over 75%.
For the compound `CC(C=NNC(=O)c1ccc(C)cc1)=Cc1ccccc1` [Compound 183], the mortality at 300 ppm in experiment [2] is over 75%; in experiment [1] it was over 80%; in experiment [4] it was over 80%.
Turning to `CC(C=NNC(=O)c1cc(F)ccc1F)=Cc1ccccc1C` [Compound 204], the mortality at 300 ppm in experiment [6] is over 75%.
As to `COc1ccccc1C(=O)NN=CC(C)=Cc1cccc(F)c1` [Compound 187], the mortality at 300 ppm in experiment [4] was over 80%.
Regarding `CC(C=NNC(=O)c1cc(F)ccc1F)=Cc1ccc(F)cc1` [Compound 202], the mortality at 300 ppm (in experiment [3]; in the experiment on Bean Aphid (aphis fabae)) was over 75% throughout.
As for `O=C(NN=CC(Cl)=Cc1ccccc1)c1ccccn1` [Compound 157], the mortality at 300 ppm (in experiment [3]; in the experiment with Bean Aphid (aphis fabae)) was over 75% in each case.
